Series [1] concerns Mycobacterium tuberculosis H37Rv. The series can be described thus: Antimycobacterial susceptibility, BACTEC MGIT 960 SIRE. In kind it is cell-based.
Series [2] concerns normal cardiac myoblast H9c2 cells.
Description: Briefly, 96 well microtiter plates were inoculated with the specified human cancer cell lines in RPMI 1640 medium containing 5% fetal bovine serum and 2 mM L-glutamine at the specified plating densities. The microtiter plates were incubated at 37°C, 5% CO2, and 100% relative humidity for 24 h. The test compounds were solubilized in DMSO at 400-fold the desired final maximum test concentration, diluted with complete medium containing gentamicin and added to the wells of the microtiter plates to achieve the final desired compound concentration, then incubated for an additional 48 h at the same incubation conditions. The media were removed, the cells were fixed then stained with sulforhodamine B and the unbound dye was removed by washing with acetic acid. The bound dye was resolubilized with trizma base and the absorbance at 515 nm was measured. Cells were stained with the WST-1 cell proliferation reagent instead of sulforhodamine B in some experiments and absorbance were measured at 440 nm. The three dose response parameters GI50, TGI and LC50 were calculated for each experimental compound as follows [48]: For values where Ti ≥ Tz the formula is [ (Ti-Tz) / (C-Tz)] x 100 For values where Ti < Tz the formula is [ (Ti-Tz) / Tz] x 100 Where Ti is the absorbance of the solubilized Sulforhodamine B (SRB) (representing the number of cells) of the five different concentrations of the compound used in the test, Tz is the absorbance of the SRB at time zero, and C is the absorbance of the SRB of the control growth.
Series [3] has as its system MGH-U1R cell line. Further details: method as in PMID 25431950. The settings on record: cited from earlier work.

The values that follow come from PMC4839570, “Novel Anthra[1,2-c][1,2,5]Thiadiazole-6,11-Diones as Promising Anticancer Lead Compounds: Biological Evaluation, Characterization & Molecular Targets Determination” (PLoS ONE, 2016).

`CO[C@H]1/C=C/O[C@@]2(C)Oc3c(C)c(O)c4c(O)c(c(/C=N/N5CCN(C)CC5)c(O)c4c3C2=O)NC(=O)/C(C)=C\C=C\[C@H](C)[C@H](O)[C@@H](C)[C@@H](O)[C@@H](C)[C@H](OC(C)=O)[C@@H]1C` [Rifampin, reference compound]: the “Effect on M. tuberculosis H37Rv” value in series [1] (1 μg/mL) is recorded as “Inhibition”.

`COc1cccc2c1C(=O)c1c(O)c3c(c(O)c1C2=O)C[C@@](O)(C(=O)CO)C[C@@H]3O[C@H]1C[C@H](N)[C@H](O)[C@H](C)O1` [Doxorubicin, doxorubicin, reference compound]: the “cytotoxicity towards normal cardiac myoblast H9c2 cells” value in series [2] was “potent dose dependent cytotoxic effect”. In addition, the “resistance of MGH-U1R cell line” value in series [3] is 40 fold. With `[H]/N=C(/N)N[C@H]1[C@H](O)[C@@H](O)[C@H](O[C@@H]2O[C@@H](C)[C@](O)(C=O)[C@H]2O[C@@H]2O[C@@H](CO)[C@H](O)[C@@H](O)[C@@H]2NC)[C@@H](N/C(N)=N\[H])[C@@H]1O` [Streptomycin, reference compound], in series [1] (1 μg/mL), the “Effect on M. tuberculosis H37Rv” value is given as “Inhibition”. `NNC(=O)c1ccncc1` [Isoniazid, reference compound]: in series [1] (0.1 μg/mL), the “Effect on M. tuberculosis H37Rv” value is recorded as “Inhibition”. On to `CC[C@@H](CO)NCCN[C@@H](CC)CO` [Ethambutol, reference compound], for which, in series [1] (5 μg/mL), the “Effect on M. tuberculosis H37Rv” value was “Inhibition”.
